According to US12371428B2 (Exelixis, Inc., priority 2019, dated 2025):
Read-outs that look alike come from different tables or passages of the source.

Columns and labels:
Assay type in all cases: cell-based
[1] = molecular target: KDR (phospho-KDR, VEGF165-stimulated HUVEC cells) (Homo sapiens (Human), UniProt P35968); assay: KDR autophosphorylation ELISA in HUVEC cells (Example G); conditions: cellular activity
Description: Human umbilical vein endothelial cells or HUVEC (Lonza #C2519A) were seeded at 2×10^4 cells/well onto 96-well plates (Corning #3904), in EGM-2 growth medium (Lonza #CC-3162) containing 1% Penicillin Streptomycin (Thermo Fisher #15140-122). HUVEC cells were incubated at 37° C., 5% CO2 for 24 h and then starved for 24 h in serum-free EBM-2 basal medium (Lonza #CC-3156) containing 1% Penicillin Streptomycin. Test compounds were serially diluted to produce an 8-point dose curve in fresh serum-free medium to a final concentration of 0.3% DMSO (vehicle) and added to the cells and incubated for 1 h. Cells were then stimulated with 100 ng/mL recombinant human VEGF165 (R&D Systems #293-VE-500) for 5 min, washed with cold PBS, and immediately lysed with […] of cold 1× lysis buffer [20 mM Tris, 137 mM sodium chloride, 2 mM EDTA, 10% glycerol, 1% NP-40 alternative, 1 mM activated sodium orthovanadate, 1 mM PefaBloc SC (Sigma-Aldrich #11429868001), protease/phosphatase inhibitor tablet (Thermo Fisher #A32959)]. Lysates were collected and 100 μL/well added into the human phospho-KDR DuoSet IC ELISA (R&D Systems #DYC1766-2). Assay was performed according to manufacturer's instructions and sample phospho-KDR concentrations were extrapolated using human phospho-KDR control (R&D Systems #841421) as a standard. Positive control wells (100% activity) contained VEGF165-stimulated, DMSO-treated cell lysates. Negative control wells (0% activity) contained non-stimulated cell lysates. IC50 values were calculated by nonlinear regression analysis using a 4-parameter logistic curve fit in ActivityBase XE (IDBS).

[2] = molecular target: Mer (phospho-Mer, MERTK-transfected 293A cells) (Homo sapiens (Human), UniProt Q12866); assay: Mer autophosphorylation ELISA in transient transfected 293A cells (Example H); conditions: cellular activity
Mer (phospho-Mer, MERTK-transfected 293A cells), sequence (Q12866 21-999): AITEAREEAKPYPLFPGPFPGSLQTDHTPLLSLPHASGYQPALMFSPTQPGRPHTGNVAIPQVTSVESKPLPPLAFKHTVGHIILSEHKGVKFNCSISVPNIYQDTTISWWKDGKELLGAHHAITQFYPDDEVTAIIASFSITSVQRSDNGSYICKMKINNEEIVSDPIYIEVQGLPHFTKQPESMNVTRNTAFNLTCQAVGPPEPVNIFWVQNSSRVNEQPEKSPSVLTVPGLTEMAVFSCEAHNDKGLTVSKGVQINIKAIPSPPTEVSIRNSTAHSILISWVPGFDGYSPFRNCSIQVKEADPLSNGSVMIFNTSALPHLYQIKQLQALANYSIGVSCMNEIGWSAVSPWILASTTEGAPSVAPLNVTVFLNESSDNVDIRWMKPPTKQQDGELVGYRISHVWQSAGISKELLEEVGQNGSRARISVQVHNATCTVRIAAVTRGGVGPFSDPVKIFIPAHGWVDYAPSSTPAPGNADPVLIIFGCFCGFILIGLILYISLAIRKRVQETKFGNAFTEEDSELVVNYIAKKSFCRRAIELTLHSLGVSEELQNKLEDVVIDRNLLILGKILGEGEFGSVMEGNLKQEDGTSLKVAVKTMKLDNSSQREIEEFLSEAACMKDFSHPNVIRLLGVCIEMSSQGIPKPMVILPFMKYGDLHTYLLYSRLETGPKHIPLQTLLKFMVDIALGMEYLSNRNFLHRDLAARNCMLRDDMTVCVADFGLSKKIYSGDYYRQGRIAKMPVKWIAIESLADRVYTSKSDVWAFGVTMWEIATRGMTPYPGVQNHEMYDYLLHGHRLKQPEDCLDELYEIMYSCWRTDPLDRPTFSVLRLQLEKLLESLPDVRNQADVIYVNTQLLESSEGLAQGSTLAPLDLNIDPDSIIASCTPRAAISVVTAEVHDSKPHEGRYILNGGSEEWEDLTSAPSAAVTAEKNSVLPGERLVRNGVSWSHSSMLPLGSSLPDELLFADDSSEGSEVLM
Description: 293A cells (Thermo Fisher #R70507) were seeded at 1.5×10^6 cells/well onto 100 mm dish (Greiner #664169), in DMEM (Thermo Fisher #11995-040) containing 10% FBS (Thermo Fisher #26140-079), 1% MEM NEAA (Thermo Fisher #11140-050), 1% GlutaMax (Thermo Fisher #35050-061), and 1% Penicillin Streptomycin (Thermo Fisher #15140-122). 293A cells were incubated at 37° C., 5% CO2 for 24 h and then transfected with […] MERTK DNA (Genecopoeia #EX-Z8208-M02) using TransIT LT1 transfection reagent (Mirus-Bio #MIR2305). After 24 h incubation, the transfected 293A cells were seeded at 1×10^5 cells/well onto 96-well plates (Corning #3904) in DMEM growth medium overnight. Test compounds were serially diluted to produce an 8-point dose curve in fresh serum-free medium to a final concentration of 0.3% DMSO (vehicle) and added to the cells and incubated for 1 h. Cells were then immediately lysed with 150 μL of cold 1× lysis buffer [20 mM Tris, 137 mM sodium chloride, 2 mM EDTA, 10% glycerol, 1% NP-40 alternative, 1 mM activated sodium orthovanadate, 1 mM PefaBloc SC (Sigma-Aldrich #11429868001), protease/phosphatase inhibitor tablet (Thermo Fisher #A32959)]. Lysates were clarified by centrifugation and 50 µL/well added in to the human phospho-Mer DuoSet IC ELISA (R&D Systems #DYC2579-2). Assay was performed according to manufacturer's instructions and sample phospho-Mer concentrations were extrapolated using human phospho-Mer control (R&D Systems #841793) as a standard. Positive control wells (100% activity) contained DMSO-treated cell lysates. Negative control wells (0% activity) contained reference inhibitor-treated cell lysates. IC50 values were calculated by nonlinear regression analysis using a 4-parameter logistic curve fit in ActivityBase XE (JDBS).

[3] = molecular target: Met (phospho-Met, HGF-stimulated PC-3 prostate cancer cells) (Homo sapiens (Human), UniProt P08581); assay: Met autophosphorylation ELISA in PC-3 cells (Example F); conditions: cellular activity, read-out: c-Met IC50
Met (phospho-Met, HGF-stimulated PC-3 prostate cancer cells), sequence (P08581 25-1390): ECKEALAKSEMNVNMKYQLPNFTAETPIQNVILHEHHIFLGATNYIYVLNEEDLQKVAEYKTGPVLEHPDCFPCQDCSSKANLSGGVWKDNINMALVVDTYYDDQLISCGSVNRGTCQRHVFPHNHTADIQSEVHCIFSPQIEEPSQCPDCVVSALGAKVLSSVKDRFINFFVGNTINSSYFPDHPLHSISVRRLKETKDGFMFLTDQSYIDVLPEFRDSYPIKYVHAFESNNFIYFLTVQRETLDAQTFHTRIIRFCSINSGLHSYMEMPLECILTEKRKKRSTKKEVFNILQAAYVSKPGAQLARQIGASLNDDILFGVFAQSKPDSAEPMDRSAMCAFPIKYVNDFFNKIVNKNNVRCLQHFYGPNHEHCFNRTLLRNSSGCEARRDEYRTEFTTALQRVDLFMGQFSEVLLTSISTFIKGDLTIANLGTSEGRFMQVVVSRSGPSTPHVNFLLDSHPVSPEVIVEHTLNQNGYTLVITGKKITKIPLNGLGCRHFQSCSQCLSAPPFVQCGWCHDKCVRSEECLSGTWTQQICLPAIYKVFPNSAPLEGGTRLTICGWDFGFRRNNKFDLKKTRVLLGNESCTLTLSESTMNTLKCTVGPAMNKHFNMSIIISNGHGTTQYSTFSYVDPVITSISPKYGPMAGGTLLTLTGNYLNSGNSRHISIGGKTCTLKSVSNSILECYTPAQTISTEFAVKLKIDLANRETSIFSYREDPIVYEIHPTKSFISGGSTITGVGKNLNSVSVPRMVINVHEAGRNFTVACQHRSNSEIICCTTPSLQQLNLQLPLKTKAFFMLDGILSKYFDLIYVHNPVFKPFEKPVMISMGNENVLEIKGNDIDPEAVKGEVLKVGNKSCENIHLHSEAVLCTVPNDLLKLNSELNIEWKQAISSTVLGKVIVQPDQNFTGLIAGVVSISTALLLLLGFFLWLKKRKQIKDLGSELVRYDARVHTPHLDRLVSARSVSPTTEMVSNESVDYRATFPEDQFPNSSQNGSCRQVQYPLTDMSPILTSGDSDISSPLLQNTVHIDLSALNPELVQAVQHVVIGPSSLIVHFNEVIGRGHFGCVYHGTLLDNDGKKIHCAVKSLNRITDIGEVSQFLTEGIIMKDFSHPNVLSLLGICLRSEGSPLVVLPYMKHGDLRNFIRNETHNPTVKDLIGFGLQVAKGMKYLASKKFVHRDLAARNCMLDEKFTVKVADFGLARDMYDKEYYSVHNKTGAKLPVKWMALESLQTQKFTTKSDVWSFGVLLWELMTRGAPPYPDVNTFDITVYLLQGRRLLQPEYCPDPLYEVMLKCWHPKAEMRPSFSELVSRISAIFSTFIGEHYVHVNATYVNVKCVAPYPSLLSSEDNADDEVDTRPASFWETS
Description: PC-3 prostate cancer cells (ATCC #CRL-1435) were seeded at 4×10^4 cells/well onto 24-well plates (Greiner #662165), in DMEM (Thermo Fisher #11995-040) containing 10% FBS (Thermo Fisher #26140-079), 1% MEM NEAA (Thermo Fisher #11140-050), 1% GlutaMax (Thermo Fisher #35050-061), and 1% Penicillin Streptomycin (Thermo Fisher #15140-122). PC-3 cells were incubated at 37° C., 5% CO2 for 24 h and then starved for 3 h in serum-free medium. Test compounds were serially diluted to produce an 8-point dose curve in fresh serum-free medium to a final concentration of 0.3% DMSO (vehicle) and added to the cells and incubated for 1 h. Cells were then stimulated with 100 ng/mL recombinant human HGF (R&D Systems #294-HG-250) for 10 min, washed with cold PBS, and immediately lysed with […] of cold 1× lysis buffer [20 mM Tris, 137 mM sodium chloride, 2 mM EDTA, 10% glycerol, 1% NP-40 alternative, 1 mM activated sodium orthovanadate, 1 mM PefaBloc SC (Sigma-Aldrich #11429868001), protease/phosphatase inhibitor tablet (Thermo Fisher #A32959)]. Lysates were clarified by centrifugation and 100 μL/well added into the PathScan phospho-Met (panTyr) Sandwich ELISA (Cell Signaling Technology #7333). Assay was performed according to manufacturer's instructions. Positive control wells (100% activity) contained HGF-stimulated, DMSO-treated cell lysates. Negative control wells (0% activity) contained HGF-stimulated, reference inhibitor-treated cell lysates. IC50 values were calculated by nonlinear regression analysis using a 4-parameter logistic curve fit in ActivityBase XE (IDBS).

[4] = KDR autophosphorylation ELISA in HUVEC cells
[5] = Mer autophosphorylation ELISA in transient transfected 293A cells
[6] = Met autophosphorylation ELISA in PC-3 cells

KDR (phospho-KDR, VEGF165-stimulated HUVEC cells), sequence (P35968 20-1356): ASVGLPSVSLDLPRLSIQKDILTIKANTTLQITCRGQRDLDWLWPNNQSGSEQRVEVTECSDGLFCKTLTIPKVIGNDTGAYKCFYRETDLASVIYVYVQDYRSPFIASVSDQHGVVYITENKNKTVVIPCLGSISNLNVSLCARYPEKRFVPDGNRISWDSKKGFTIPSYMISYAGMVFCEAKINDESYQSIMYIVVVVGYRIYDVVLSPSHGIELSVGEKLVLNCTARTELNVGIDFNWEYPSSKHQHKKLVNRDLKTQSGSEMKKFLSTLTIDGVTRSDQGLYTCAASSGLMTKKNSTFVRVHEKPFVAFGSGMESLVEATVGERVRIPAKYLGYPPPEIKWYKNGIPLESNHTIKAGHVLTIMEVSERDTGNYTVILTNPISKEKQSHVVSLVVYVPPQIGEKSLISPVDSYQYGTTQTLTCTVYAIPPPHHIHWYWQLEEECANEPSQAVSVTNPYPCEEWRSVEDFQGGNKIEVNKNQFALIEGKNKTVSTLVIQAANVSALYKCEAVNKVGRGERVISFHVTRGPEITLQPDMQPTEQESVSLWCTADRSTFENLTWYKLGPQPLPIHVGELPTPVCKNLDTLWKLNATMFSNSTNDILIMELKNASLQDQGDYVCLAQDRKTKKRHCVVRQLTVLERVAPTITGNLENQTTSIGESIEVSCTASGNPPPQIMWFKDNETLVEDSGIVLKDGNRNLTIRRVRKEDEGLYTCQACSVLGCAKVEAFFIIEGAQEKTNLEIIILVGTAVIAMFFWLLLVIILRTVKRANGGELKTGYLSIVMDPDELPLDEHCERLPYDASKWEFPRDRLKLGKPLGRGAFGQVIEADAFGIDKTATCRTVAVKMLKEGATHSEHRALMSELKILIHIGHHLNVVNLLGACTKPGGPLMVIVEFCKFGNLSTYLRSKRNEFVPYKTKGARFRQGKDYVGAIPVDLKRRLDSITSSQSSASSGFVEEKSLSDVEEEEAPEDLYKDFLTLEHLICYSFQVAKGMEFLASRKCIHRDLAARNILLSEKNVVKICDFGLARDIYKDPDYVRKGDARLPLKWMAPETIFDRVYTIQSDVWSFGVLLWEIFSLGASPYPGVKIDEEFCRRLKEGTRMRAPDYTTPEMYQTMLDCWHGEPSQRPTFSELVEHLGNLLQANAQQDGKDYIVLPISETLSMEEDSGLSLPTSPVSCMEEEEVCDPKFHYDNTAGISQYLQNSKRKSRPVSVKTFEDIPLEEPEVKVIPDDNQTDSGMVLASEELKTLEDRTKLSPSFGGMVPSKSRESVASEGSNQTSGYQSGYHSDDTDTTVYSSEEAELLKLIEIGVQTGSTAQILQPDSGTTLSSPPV

## CCOCc1nc(C)c(-c2ccc(F)cc2C)c(O)c1C(=O)Nc1ccc(Oc2ccnc3cc(OC)c(OC)nc23)cc1 [Compound 780, N-[4-[(6,7-dimethoxy-1,5-naphthyridin-4-yl)oxy]phenyl]-2-(ethoxymethyl)-5-(4-fluoro-2-methylphenyl)-4-hydroxy-6-methylpyridine-3-carboxamide]
[1]; [4]
  IC50: 100 to 300 nM
[2]; [5]
  IC50: < 100 nM
[3]; [6]
  IC50: < 100 nM

## COc1cnc2c(Oc3c(F)cc(NC(=O)c4c(C)nc(C)c(-c5ccc(F)cc5C)c4O)c(F)c3F)ccnc2c1 [Compound 768, 5-(4-fluoro-2-methylphenyl)-4-hydroxy-2,6-dimethyl-N-[2,3,5-trifluoro-4-[(7-methoxy-1,5-naphthyridin-4-yl)oxy]phenyl]pyridine-3-carboxamide]
[1]; [4]
  IC50: < 100 nM
[2]; [5]
  IC50: < 100 nM
[3]; [6]
  IC50: < 100 nM

## COc1cnc2c(Oc3ccc(NC(=O)c4c(C)n(C)c(C)c(-c5ccc(F)c(F)c5)c4=O)cc3F)ccnc2c1 [Compound 820, 5-(3,4-difluorophenyl)-N-[3-fluoro-4-[(7-methoxy-1,5-naphthyridin-4-yl)oxy]phenyl]-1,2,6-trimethyl-4-oxopyridine-3-carboxamide]
[1]; HUVEC cells
  IC50: > 300 nM
[2]; transfected 293A cells
  IC50: < 100 nM
[3]; PC-3 cells
  IC50: < 100 nM

## COc1cc2nccc(Oc3ccc(NC(=O)c4cc(C(C)=O)c(C)n(-c5ccc(F)cc5C)c4=O)cc3F)c2nc1OC [Compound 720, 5-acetyl-N-[4-[(6,7-dimethoxy-1,5-naphthyridin-4-yl)oxy]-3-fluorophenyl]-1-(4-fluoro-2-methylphenyl)-6-methyl-2-oxopyridine-3-carboxamide]
[1]; [4]
  IC50: > 300 nM
[2]; [5]
  IC50: < 100 nM
[3]; [6]
  IC50: < 100 nM

## COc1cc2nccc(Oc3ccc(NC(=O)c4c(C)n(CC(F)F)cc(-c5ccc(F)cc5C)c4=O)cc3F)c2nc1OC [Compound 786, 1-(2,2-difluoroethyl)-N-[4-[(6,7-dimethoxy-1,5-naphthyridin-4-yl)oxy]-3-fluorophenyl]-5-(4-fluoro-2-methylphenyl)-2-methyl-4-oxopyridine-3-carboxamide]
[1]; [4]
  IC50: < 100 nM
[2]; [5]
  IC50: < 100 nM
[3]; [6]
  IC50: < 100 nM

## COc1cc2nccc(Oc3ccc(NC(=O)c4c(C)n(C)c(C)c(-c5ccc(F)cc5F)c4=O)cc3F)c2nc1OC [Compound 823, 5-(2,4-difluorophenyl)-N-[4-[(6,7-dimethoxy-1,5-naphthyridin-4-yl)oxy]-3-fluorophenyl]-1,2,6-trimethyl-4-oxopyridine-3-carboxamide]
[1]; HUVEC cells
  IC50: > 300 nM
[2]; transfected 293A cells
  IC50: < 100 nM
[3]; PC-3 cells
  IC50: < 100 nM

## COc1cc2nccc(Oc3ccc(NC(=O)c4c(C)n(C(F)F)cc(-c5ccc(F)cc5)c4=O)cc3F)c2nc1OC [Compound 729, 1-(difluoromethyl)-N-[4-[(6,7-dimethoxy-1,5-naphthyridin-4-yl)oxy]-3-fluorophenyl]-5-(4-fluorophenyl)-2-methyl-4-oxopyridine-3-carboxamide]
[1]; [4]
  IC50: < 100 nM
[2]; [5]
  IC50: < 100 nM
[3]; [6]
  IC50: < 100 nM

## COc1cnc2c(Oc3ccc(NC(=O)c4cnc(C)c(-c5ccc(F)cc5OC)c4O)cc3F)ccnc2c1 [Compound 707, N-[3-fluoro-4-[(7-methoxy-1,5-naphthyridin-4-yl)oxy]phenyl]-5-(4-fluoro-2-methoxyphenyl)-4-hydroxy-6-methylpyridine-3-carboxamide]
[1]; [4]
  IC50: < 100 nM
[2]; [5]
  IC50: < 100 nM
[3]; [6]
  IC50: < 100 nM

## COc1cc2nccc(Oc3ccc(NC(=O)c4cnc(C)c(-c5ccc(F)cc5)n4)cc3F)c2nc1OC [Compound 764, N-[4-[(6,7-dimethoxy-1,5-naphthyridin-4-yl)oxy]-3-fluorophenyl]-6-(4-fluorophenyl)-5-methylpyrazine-2-carboxamide]
[1]; [4]
  IC50: > 300 nM
[2]; [5]
  IC50: < 100 nM
[3]; [6]
  IC50: < 100 nM

## COc1cnc2c(Oc3ccc(NC(=O)c4cnc(C)c(-c5ccc(C(C)C)cc5)c4O)cc3F)ccnc2c1 [Compound 705, N-[3-fluoro-4-[(7-methoxy-1,5-naphthyridin-4-yl)oxy]phenyl]-4-hydroxy-6-methyl-5-(4-propan-2-ylphenyl)pyridine-3-carboxamide]
[1]; [4]
  IC50: > 300 nM
[2]; [5]
  IC50: < 100 nM
[3]; [6]
  IC50: < 100 nM

## CCOc1ccn(-c2ccc(F)cc2)c(=O)c1C(=O)Nc1ccc(Oc2ccnc3nc(OC)c(OCCOC)cc23)c(F)c1 [Compound 761, 4-ethoxy-N-[3-fluoro-4-[[7-methoxy-6-(2-methoxyethoxy)-1,8-naphthyridin-4-yl]oxy]phenyl]-1-(4-fluorophenyl)-2-oxopyridine-3-carboxamide]
[1]; [4]
  IC50: > 300 nM
[2]; [5]
  IC50: < 100 nM
[3]; [6]
  IC50: < 100 nM

## COc1ccc(-c2c(C)nc(C)c(C(=O)Nc3ccc(Oc4ccnc5cc(OC)c(OC)nc45)c(F)c3)c2O)cc1C [Compound 712, N-[4-[(6,7-dimethoxy-1,5-naphthyridin-4-yl)oxy]-3-fluorophenyl]-4-hydroxy-5-(4-methoxy-3-methylphenyl)-2,6-dimethylpyridine-3-carboxamide]
[1]; [4]
  IC50: < 100 nM
[2]; [5]
  IC50: < 100 nM
[3]; [6]
  IC50: < 100 nM

## CCOCc1nc(C)c(-c2ccc(F)cc2C)c(O)c1C(=O)Nc1ccc(Oc2ccnc3cc(OC)cnc23)cc1 [Compound 781, 2-(ethoxymethyl)-5-(4-fluoro-2-methylphenyl)-4-hydroxy-N-[4-[(7-methoxy-1,5-naphthyridin-4-yl)oxy]phenyl]-6-methylpyridine-3-carboxamide]
[1]; [4]
  IC50: > 300 nM
[2]; [5]
  IC50: < 100 nM
[3]; [6]
  IC50: < 100 nM

## COc1cnc2c(Oc3ccc(NC(=O)c4c(C)n(C)c(C)c(-c5ccc(F)cc5OC)c4=O)cc3F)ccnc2c1 [Compound 818, N-[3-fluoro-4-[(7-methoxy-1,5-naphthyridin-4-yl)oxy]phenyl]-5-(4-fluoro-2-methoxyphenyl)-1,2,6-trimethyl-4-oxopyridine-3-carboxamide]
[1]; HUVEC cells
  IC50: > 300 nM
[2]; transfected 293A cells
  IC50: < 100 nM
[3]; PC-3 cells
  IC50: < 100 nM

## COc1cnc2c(Oc3ccc(NC(=O)c4c(C)n(CC(F)F)cc(-c5ccc(F)c(F)c5)c4=O)cc3F)ccnc2c1 [Compound 817, 1-(2,2-difluoroethyl)-5-(3,4-difluorophenyl)-N-[3-fluoro-4-[(7-methoxy-1,5-naphthyridin-4-yl)oxy]phenyl]-2-methyl-4-oxopyridine-3-carboxamide]
[1]; HUVEC cells
  IC50: > 300 nM
[2]; transfected 293A cells
  IC50: < 100 nM
[3]; PC-3 cells
  IC50: < 100 nM
